system: Avena fatua (AVEFA); experiment: Example B post-emergence herbicidal activity, glasshouse pot test; format: in vivo; conditions: 312 h, rate 250 g/ha, evaluated after 13 days, read-out: Post-emergence activity AVEFA (100=total damage to plant; 0=no damage to plant)
Outline: (§1)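 Herbicidal effect was judged 13 days after treatment as percent-style damage (100 = total kill). Seeds in standard soil had grown 1 day (pre) or 8 days (post) in a 24/16 °C, 14 h light, 65% humidity glasshouse before spraying with compound in acetone/water (50:50) containing 0.5% Tween 20.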

COc1ccc(-c2ccc(Cl)c(F)c2)cc1C1=C(O)C(C)(C)OC(C)(C)C1=O [Compound A-96] and Cc1cc(C)c(-c2ccc(Cl)c(F)c2)c(C)c1C1=C(O)C(C)(C)OC(C)(C)C1=O [Compound A-97] are the same in pest or weed control at 250 g/ha: 30% for the first, 30% for the second.

First: C#Cc1ccc(-c2ccc(CC)c(C3=C(O)C(C)(C)OC(C)(C)C3=O)c2)cc1 [Compound A-98]
Second: CCc1ccc(-c2ccc(Cl)cc2C#N)cc1C1=C(O)C(C)(C)OC(C)(C)C1=O [Compound A-100]
The pest or weed control at 250 g/ha of the first is lower: 70% for the first, 90% for the second.

system: Echinochloa crus-galli (ECHCG); experiment: as above; format: in vivo; conditions: 312 h, rate 250 g/ha, evaluated after 13 days, read-out: Post-emergence activity ECHCG (100=total damage to plant; 0=no damage to plant)
Outline: as §1

Compared with COc1ccc(-c2ccc(Cl)c(F)c2)cc1C1=C(O)C(C)(C)OC(C)(C)C1=O [Compound A-96], Cc1cc(C)c(-c2ccc(Cl)c(F)c2)c(C)c1C1=C(O)C(C)(C)OC(C)(C)C1=O [Compound A-97] is lower in pest or weed control at 250 g/ha: 100% for the first, 90% for the second.

C#Cc1ccc(-c2ccc(CC)c(C3=C(O)C(C)(C)OC(C)(C)C3=O)c2)cc1 [Compound A-98] and CCc1ccc(-c2ccc(Cl)cc2C#N)cc1C1=C(O)C(C)(C)OC(C)(C)C1=O [Compound A-100] are the same in pest or weed control at 250 g/ha: 100% for the first, 100% for the second.

system: Alopecurus myosuroides (ALOMY); experiment: as above; format: in vivo; conditions: 312 h, rate 250 g/ha, evaluated after 13 days, read-out: Post-emergence activity ALOMY (100=total damage to plant; 0=no damage to plant)
Outline: as §1

Going from COc1ccc(-c2ccc(Cl)c(F)c2)cc1C1=C(O)C(C)(C)OC(C)(C)C1=O [Compound A-96] to Cc1cc(C)c(-c2ccc(Cl)c(F)c2)c(C)c1C1=C(O)C(C)(C)OC(C)(C)C1=O [Compound A-97], the pest or weed control at 250 g/ha falls from 50% to 40%.

First: C#Cc1ccc(-c2ccc(CC)c(C3=C(O)C(C)(C)OC(C)(C)C3=O)c2)cc1 [Compound A-98]
Second: CCc1ccc(-c2ccc(Cl)cc2C#N)cc1C1=C(O)C(C)(C)OC(C)(C)C1=O [Compound A-100]
The pest or weed control at 250 g/ha of the first is lower: 50% for the first, 90% for the second.

system: Amaranthus retroflexus (AMARE); experiment: as above; format: in vivo; conditions: 312 h, rate 250 g/ha, evaluated after 13 days, read-out: Post-emergence activity AMARE (100=total damage to plant; 0=no damage to plant)
Outline: as §1

COc1ccc(-c2ccc(Cl)c(F)c2)cc1C1=C(O)C(C)(C)OC(C)(C)C1=O [Compound A-96] and Cc1cc(C)c(-c2ccc(Cl)c(F)c2)c(C)c1C1=C(O)C(C)(C)OC(C)(C)C1=O [Compound A-97] are the same in pest or weed control at 250 g/ha: 0% for the first, 0% for the second.

Compared with C#Cc1ccc(-c2ccc(CC)c(C3=C(O)C(C)(C)OC(C)(C)C3=O)c2)cc1 [Compound A-98], CCc1ccc(-c2ccc(Cl)cc2C#N)cc1C1=C(O)C(C)(C)OC(C)(C)C1=O [Compound A-100] is lower in pest or weed control at 250 g/ha: 30% for the first, 0% for the second.

system: Setaria faberi (SETFA); experiment: as above; format: in vivo; conditions: 312 h, rate 250 g/ha, evaluated after 13 days, read-out: Post-emergence activity SETFA (100=total damage to plant; 0=no damage to plant)
Outline: as §1

Compared with COc1ccc(-c2ccc(Cl)c(F)c2)cc1C1=C(O)C(C)(C)OC(C)(C)C1=O [Compound A-96], Cc1cc(C)c(-c2ccc(Cl)c(F)c2)c(C)c1C1=C(O)C(C)(C)OC(C)(C)C1=O [Compound A-97] is lower in pest or weed control at 250 g/ha: 90% for the first, 70% for the second.

C#Cc1ccc(-c2ccc(CC)c(C3=C(O)C(C)(C)OC(C)(C)C3=O)c2)cc1 [Compound A-98] and CCc1ccc(-c2ccc(Cl)cc2C#N)cc1C1=C(O)C(C)(C)OC(C)(C)C1=O [Compound A-100] are the same in pest or weed control at 250 g/ha: 100% for the first, 100% for the second.

system: Avena fatua (AVEFA); experiment: Example B pre-emergence herbicidal activity, glasshouse pot test; format: in vivo; conditions: 312 h, rate 250 g/ha, evaluated after 13 days, read-out: Pre-emergence activity AVEFA (100=total damage to plant; 0=no damage to plant)
Outline: as §1

COc1ccc(-c2ccc(Cl)c(F)c2)cc1C1=C(O)C(C)(C)OC(C)(C)C1=O [Compound A-96] and Cc1cc(C)c(-c2ccc(Cl)c(F)c2)c(C)c1C1=C(O)C(C)(C)OC(C)(C)C1=O [Compound A-97] are the same in pest or weed control at 250 g/ha: 0% for the first, 0% for the second.

First: C#Cc1ccc(-c2ccc(CC)c(C3=C(O)C(C)(C)OC(C)(C)C3=O)c2)cc1 [Compound A-98]
Second: CCc1ccc(-c2ccc(Cl)cc2C#N)cc1C1=C(O)C(C)(C)OC(C)(C)C1=O [Compound A-100]
The pest or weed control at 250 g/ha of the first is lower: 0% for the first, 90% for the second.

system: Echinochloa crus-galli (ECHCG); experiment: as above; format: in vivo; conditions: 312 h, rate 250 g/ha, evaluated after 13 days, read-out: Pre-emergence activity ECHCG (100=total damage to plant; 0=no damage to plant)
Outline: as §1

Going from COc1ccc(-c2ccc(Cl)c(F)c2)cc1C1=C(O)C(C)(C)OC(C)(C)C1=O [Compound A-96] to Cc1cc(C)c(-c2ccc(Cl)c(F)c2)c(C)c1C1=C(O)C(C)(C)OC(C)(C)C1=O [Compound A-97], the pest or weed control at 250 g/ha rises from 0% to 50%.

Compared with C#Cc1ccc(-c2ccc(CC)c(C3=C(O)C(C)(C)OC(C)(C)C3=O)c2)cc1 [Compound A-98], CCc1ccc(-c2ccc(Cl)cc2C#N)cc1C1=C(O)C(C)(C)OC(C)(C)C1=O [Compound A-100] is lower in pest or weed control at 250 g/ha: 90% for the first, 80% for the second.

system: Alopecurus myosuroides (ALOMY); experiment: as above; format: in vivo; conditions: 312 h, rate 250 g/ha, evaluated after 13 days, read-out: Pre-emergence activity ALOMY (100=total damage to plant; 0=no damage to plant)
Outline: as §1

COc1ccc(-c2ccc(Cl)c(F)c2)cc1C1=C(O)C(C)(C)OC(C)(C)C1=O [Compound A-96] and Cc1cc(C)c(-c2ccc(Cl)c(F)c2)c(C)c1C1=C(O)C(C)(C)OC(C)(C)C1=O [Compound A-97] are the same in pest or weed control at 250 g/ha: 0% for the first, 0% for the second.

Going from C#Cc1ccc(-c2ccc(CC)c(C3=C(O)C(C)(C)OC(C)(C)C3=O)c2)cc1 [Compound A-98] to CCc1ccc(-c2ccc(Cl)cc2C#N)cc1C1=C(O)C(C)(C)OC(C)(C)C1=O [Compound A-100], the pest or weed control at 250 g/ha rises from 0% to 20%.

system: Amaranthus retroflexus (AMARE); experiment: as above; format: in vivo; conditions: 312 h, rate 250 g/ha, evaluated after 13 days, read-out: Pre-emergence activity AMARE (100=total damage to plant; 0=no damage to plant)
Outline: as §1

COc1ccc(-c2ccc(Cl)c(F)c2)cc1C1=C(O)C(C)(C)OC(C)(C)C1=O [Compound A-96] and Cc1cc(C)c(-c2ccc(Cl)c(F)c2)c(C)c1C1=C(O)C(C)(C)OC(C)(C)C1=O [Compound A-97] are the same in pest or weed control at 250 g/ha: 0% for the first, 0% for the second.

Going from C#Cc1ccc(-c2ccc(CC)c(C3=C(O)C(C)(C)OC(C)(C)C3=O)c2)cc1 [Compound A-98] to CCc1ccc(-c2ccc(Cl)cc2C#N)cc1C1=C(O)C(C)(C)OC(C)(C)C1=O [Compound A-100], the pest or weed control at 250 g/ha rises from 50% to 60%.

system: Setaria faberi (SETFA); experiment: as above; format: in vivo; conditions: 312 h, rate 250 g/ha, evaluated after 13 days, read-out: Pre-emergence activity SETFA (100=total damage to plant; 0=no damage to plant)
Outline: as §1

Compared with COc1ccc(-c2ccc(Cl)c(F)c2)cc1C1=C(O)C(C)(C)OC(C)(C)C1=O [Compound A-96], Cc1cc(C)c(-c2ccc(Cl)c(F)c2)c(C)c1C1=C(O)C(C)(C)OC(C)(C)C1=O [Compound A-97] is higher in pest or weed control at 250 g/ha: 0% for the first, 60% for the second.

Going from C#Cc1ccc(-c2ccc(CC)c(C3=C(O)C(C)(C)OC(C)(C)C3=O)c2)cc1 [Compound A-98] to CCc1ccc(-c2ccc(Cl)cc2C#N)cc1C1=C(O)C(C)(C)OC(C)(C)C1=O [Compound A-100], the pest or weed control at 250 g/ha rises from 90% to 100%.
